# Reference: publication PMC11640419, “New Synthetic Analogs of Natural 5Z,9Z-Dienoic Acids—Hybrid Molecules Based on Oleanolic Acid: Synthesis and Study of Antitumor Activity” (Cancers, 2024)
# Experiments:
# Format in all cases: cell-based, human
# [1] = tested on: Jurkat cells; test: MILLIPLEX MAP 7-plex DNA Damage/Genotoxicity Magnetic Bead Kit (Luminex)
# From the text: (§1) In this study, we employed Luminex technology (MILLIPLEX® MAP 7-plex DNA Damage/Genotoxicity Magnetic Bead Kit and MILLIPLEX® MAP Early Apoptosis 7-plex Magnetic Bead Kit) to analyze protein analytes in Jurkat cell lysates. […] The Luminex xMAP intracellular protein assay is a multiplex multiparameter assay that employs a multiplex of fluorescent-labeled antibodies and magnetic particles to enhance the sensitivity, dynamic range, and accuracy of the analytical method. Luminex technology is employed to identify the proteins of interest present in each well. The mean fluorescence intensity (MFI) of each measured protein is then converted to its concentration (pg·mL^−1) using specialized software and standard curves.
# (§2) The test substances were incubated with the cells at two concentrations, […], for a period of six hours. […] Following exposure, approximately 1 × 10⁶ cells from each well were transferred to 0.5-mL tubes (Eppendorf, Hamburg, Germany) and washed with PBS. Subsequently, the PBS was removed, 10 μL of lysis buffer (Cell Signaling Buffer and Detection Kit, Luminex, Austin, TX, USA) supplemented with 2 × protease and phosphatase inhibitors (Luminex, USA) was added, and the mixture was shaken for 30 s. A cocktail of fluorescence-encoded magnetic bead microspheres (MagPlex®, Luminex, USA) was resuspended and treated with ultrasound. Subsequently, 70 μL of this cocktail, 70 μL of protein standard, and 70 μL of the test sample were added to the wells of a 96-well microplate and incubated for 2 h at room temperature with stirring on an orbital shaker at 700–850 rpm. A magnetic plate was firmly attached to the bottom of a 96-well plate, and all wells were washed three times with 100 μL of wash buffer (Cell Signaling Buffer and Detection Kit, Luminex, USA) added to each well to remove unbound particles. Subsequently, 50 μL of […] to each well, and the samples were incubated for one hour at 4 °C on an orbital shaker set at 700–850 rpm. Subsequently, the samples were washed once more to remove any unbound antibodies. Afterwards, 70 μL of streptavidin-phycoerythrin (streptavidin-PE) (Luminex, USA) was added to each well and incubated for 30 min at room temperature on a shaker at 600 rpm. Subsequently, the samples were washed with streptavidin-PE and resuspended in 100 μL of wash buffer for a period of 2 min on a shaker at 800 rpm. The data were analyzed using the Milliplex Analyst 5.1 software (EMD Millipore, Billerica, MA, USA).
# [2] = Cytotoxicity assay (7-AAD, flow cytometry); settings: human
# Description: (§3) The human cell lines Jurkat, K562, U937, and HEK293 were obtained from the European Collection of Authenticated Cell Cultures (ECACC) and subsequently cultured in accordance with established standard protocols and sterile techniques. The cells were maintained in RPMI 1640 (for Jurkat, K562, and U937) or DMEM (for HEK293) medium, both of which were supplemented with […], 10% FBS (Sigma, Kanagawa, Japan), and 100 units/mL penicillin-streptomycin (Sigma). Subsequently, the cells were seeded into 24-well plates at a density of 5 × 10^4 cells per well and incubated for 12 h (Jurkat, K562, U937) and 24 h (HEK293).
# (§4) The viability of the cells was evaluated through the utilization of the 7-AAD (7-aminoactinomycin D) dye (eBioscience™, San Diego, CA, USA). Following a 24 h incubation period with the test substances, the cells were washed with phosphate-salt buffer (PBS) and centrifuged at 400× g for five minutes. The precipitate was resuspended in 200 μL of flow cytometry buffer (PBS without calcium and magnesium, 2.5% FBS) and incubated with a 1 mM 7-AAD dye solution for 15 min in the dark at room temperature. Subsequently, all cell samples were subjected to analysis on a NovoCyte Penteon flow cytometer (Agilent, Santa Clara, CA, USA).
# [3] = tested on: HEK293; test: Cytotoxicity assay (7-AAD, flow cytometry); settings: Homo sapiens; HEK293, abstract
# Description: as §3, §4
# [4] = tested on: K562; test: Cytotoxicity assay (7-AAD, flow cytometry); settings: Homo sapiens; K562, abstract
# Description: as §3, §4
# [5] = tested on: U937; test: Cytotoxicity assay (7-AAD, flow cytometry); settings: Homo sapiens, U-937; U937, abstract
# Description: as §3, §4
# [6] = tested on: Jurkat cells; test: MILLIPLEX MAP Early Apoptosis 7-plex Magnetic Bead Kit (Luminex); settings: 6 h
# From the text: as §1, §2
# [7] = Cytotoxicity assay (7-AAD, flow cytometry); settings: human, Jurkat cells; Jurkat, 24 h incubation
# Description: (§5) The human cell lines Jurkat, K562, U937, and HEK293 were obtained from the European Collection of Authenticated Cell Cultures (ECACC) and subsequently cultured in accordance with established standard protocols and sterile techniques. […] Subsequently, the cells were seeded into 24-well plates at a density of 5 × 10^4 cells per well and incubated for 12 h (Jurkat, K562, U937) and 24 h (HEK293).
# as §4, with “The precipitate was resuspended in 200 μL of flow cytometry buffer (PBS without calcium and magnesium, 2.5% FBS) and incubated with a 1 mM 7-AAD dye solution for 15 min in the dark at room temperature.” left out
# [8] = tested on: Jurkat; test: Cytotoxicity assay (7-AAD, flow cytometry); settings: Homo sapiens; Jurkat, abstract; read-out: IC50 Jurkat
# Description: as §5
# as §4, with “The precipitate was resuspended in 200 μL of flow cytometry buffer (PBS without calcium and magnesium, 2.5% FBS) and incubated with a 1 mM 7-AAD dye solution for 15 min in the dark at room temperature.” left out
# [9] = tested on: Jurkat cells; test: Cell cycle analysis (MAK344 kit, flow cytometry); settings: compound at CC50, 24 h
# Description: Cell cycle analysis was performed using the MAK344 cell cycle assay kit (Sigma-Aldrich, St. Louis, MO, USA). Immediately after incubation with the tested compounds for 24 h, cells were gently washed with ice-cold phosphate-buffered saline (PBS) and centrifuged at 450× g for 5 min. After removing the supernatant, the cell precipitate was resuspended and fixed with 70% ethanol with continuous shaking on ice, and then stored at −18 degrees Celsius for 24 h. Prior to staining, the cells were washed with ice-cold PBS, and then 0.5 mL of the Cell Cycle Assay Kit working solution was added to the cell suspension at room temperature in the dark according to the working protocol. Samples were then analyzed on a NovoCyte Penteon flow cytometer (Agilent, USA).
smiles,measurement,setting,value
Cn1nccc1NC(=O)[C@]12CCC(C)(C)C[C@H]1C1=CC[C@@H]3[C@@]4(C)CC[C@H](OC(=O)CCC/C=C\CC/C=C\CCCC(=O)O)C(C)(C)[C@@H]4CC[C@@]3(C)[C@]1(C)CC2 [compound 9a],ATR protein level,"[1]; 6 h, at 0,5CC50",119 % of control
same,Chk1 protein level,"[1]; 6 h, at 0,5CC50",97 % of control
same,Chk2 protein level,"[1]; 6 h, at 0,5CC50",645 % of control
same,H2A.X protein level,"[1]; 6 h, at 0,5CC50",2485 % of control
same,MDM2 protein level,"[1]; 6 h, at 0,5CC50",115 % of control
same,p21 protein level,"[1]; 6 h, at 0,5CC50",318 % of control
same,p53 protein level,"[1]; 6 h, at 0,5CC50, genotoxicity panel",52 % of control
same,level of phosphorylated H2A.X in comparison to the control compound camptothecin,"[1]; 6 h, at 0.5CC50",~3.5 fold
same,ATR protein level,"[1]; 6 h, at CC50 (anisomycin at IC50 0.192 μmol/L), ATR (total)",131 % of control
same,Chk1 protein level,"[1]; 6 h, at CC50 (anisomycin at IC50 0.192 μmol/L), CHK1 (S345)",144 % of control
same,Chk2 protein level,"[1]; 6 h, at CC50 (anisomycin at IC50 0.192 μmol/L), CHK2 (T68)",936 % of control
same,H2A.X protein level,"[1]; 6 h, at CC50 (anisomycin at IC50 0.192 μmol/L), H2AX (S139)",3173 % of control
same,MDM2 protein level,"[1]; 6 h, at CC50 (anisomycin at IC50 0.192 μmol/L), MDM2 (total)",102 % of control
same,p21 protein level,"[1]; 6 h, at CC50 (anisomycin at IC50 0.192 μmol/L), p21 (total)",390 % of control
same,p53 protein level,"[1]; 6 h, at CC50 (anisomycin at IC50 0.192 μmol/L), p53 (S15), genotoxicity panel",128 % of control
same,"phosphorylated H2A.X, marker of DNA double-strand breaks",[1]; six hours,dose-dependent increase
same,CC50 at 24 h,"[2]; HEK293 cells, HEK293, 24 h incubation",26.2 ± 1.93 µM
same,CC50 at 24 h,"[2]; K562 cells, K562, 24 h incubation",3.09 ± 0.34 µM
same,CC50 at 24 h,"[2]; U937 cells, U937, 24 h incubation",2.85 ± 0.34 µM
same,IC50,[3],26.2 µM
same,IC50,[4],3.1 µM
same,IC50,[5],2.8 µM
same,Akt protein level,"[6]; at 0,5CC50",15 % of control
same,Bad protein level,"[6]; at 0,5CC50",106 % of control
same,Bcl-2 protein level,"[6]; at 0,5CC50",140 % of control
same,Casp9 protein level,"[6]; at 0,5CC50",1144 % of control
same,JNK protein level,"[6]; at 0,5CC50",78 % of control
same,p53 protein level,"[6]; at 0,5CC50, apoptosis panel",112 % of control
same,Bad protein level,"[6]; at CC50 (anisomycin at IC50 0.192 μmol/L), BAD (S112)",55 % of control
same,Bcl-2 protein level,"[6]; at CC50 (anisomycin at IC50 0.192 μmol/L), BCL-2 (S70)",20 % of control
same,JNK protein level,"[6]; at CC50 (anisomycin at IC50 0.192 μmol/L), JNK/SAPK1 (T183/Y185)",106 % of control
same,Casp 8 protein level,"[6]; at CC50 (anisomycin at IC50 0.192 μmol/L), activated caspase-8",17 % of control
same,Casp9 protein level,"[6]; at CC50 (anisomycin at IC50 0.192 μmol/L), activated caspase-9",1341 % of control
same,p53 protein level,"[6]; at CC50 (anisomycin at IC50 0.192 μmol/L), p53 (S46), apoptosis panel",160 % of control
same,CC50 at 24 h,[7],4.51 ± 0.41 µM
same,IC50,[8],4.5 µM
same,cell population in the S-phase (Freq S),[9],46.10%
same,percentage of cells in the G2/M phase (Freq G2),[9],3.96%
same,percentage of cells in the pre-G0 phase (Freq Sub-G1),[9],8.67%
